Assay results: patent US6682925B1, “Streptomyces strain with insecticidal activity and method of using as an insecticide” (priority 2000, dated 2004)

Assays:
Assay type in all cases: cell-based
Set-up in all cases: key: 5: five indicated growth equal to the water control; 1: a rating of one indicated the complete absence of growth; Index values two (2) through four (4) represent intermediate levels of sporulation and growth; 3: Index values two (2) through four (4) represent intermediate levels of sporulation and growth; Index values two (2) through four (4) represent intermediate levels of sporulation and growth; zero (0) indicates a failed or unnecessary test
Details in all cases: chemical control, all independent replicated tests
Botrytris cinerea = test: agar overlay plant pathogen growth assay, BOTC
Protocol: (§1) The novel Streptomyces galbus strain was grown for testing against plant pathogens in the following manner. The isolated microbe was initially fermented in three distinct actinomycete cultivation media. Media 38 was composed of 2 g/L tomato paste, 2 g/L oat flour, and 1.0 g/L sea salts. Media 31 was composed of 45 g/L oat flour, 2 g/L yeast extract, 6 g/L KH2PO4, and 4.8 g/L Na2HPO4, pH 7. Media 6 was composed of 20 g/L soluble starch, 10 g/L dextrose, 5 g/L yeast extract, 5 g/L N-Z amineA, and 1 g/L CaCO3.
(§2) The microbe was picked from tomato-oat flour agar (2 g/L tomato paste, 2 g/L oat flour, and 20 g/L agar) and introduced to 50 ml conical tubes containing 12 ml of sterile fermentation media capped with a foam plug. The inoculated tubes were incubated at 27±3° C., in an orbital shaker for six days. […]
(§3) The following pathogen/chemical pairs were tested: Alternaria brassisicola (ABRA Benomyl), Botrytris cinerea (BOTC/Benomyl), Monilinuafructicola (MONF/Benomyl), Phytophthora capsici (PCAP/Metalaxyl), Pseudomonas syringae (PSTO/Gentamycin), and Colletotrichum coccoides (COLC/Chlorothalonil). […] The chemical controls scored index ratings of one (1) in all of the independent replicated tests; and media blanks had ratings of five (5).

Alternaria brassisicola = test: agar overlay plant pathogen growth assay, ABRA
Protocol: as §1, §2, §3

Monilinuafructicola = test: agar overlay plant pathogen growth assay, MONF
Protocol: as §1, §2, §3

Colletotrichum coccoides = test: agar overlay plant pathogen growth assay, COLC
Protocol: as §1, §2, §3

Phytophthora capsici = test: agar overlay plant pathogen growth assay, PCAP
Protocol: as §1, §2, §3

Pseudomonas syringae = test: agar overlay plant pathogen growth assay, PSTO
Protocol: as §1, §2, §3

`CCCCNC(=O)n1c(NC(=O)OC)nc2ccccc21` [Benomyl] was tested, and the “BOTC pathogen growth index rating” value (Botrytris cinerea) was 1, the “ABRA pathogen growth index rating” value (Alternaria brassisicola) was 1 and the “MONF pathogen growth index rating” value (Monilinuafructicola) was 1.
For `N#Cc1c(Cl)c(Cl)c(Cl)c(C#N)c1Cl` [Chlorothalonil], the “COLC pathogen growth index rating” value (Colletotrichum coccoides) was 1.
With `COCC(=O)N(c1c(C)cccc1C)C(C)C(=O)OC` (stereo not drawn) [Metalaxyl] the “PCAP pathogen growth index rating” value (Phytophthora capsici) was 1.
In the case of Gentamycin, the “PSTO pathogen growth index rating” value (Pseudomonas syringae) is reported as 1.
